Several values for one entry are separate records, joined by “and”; a condition that tells them apart may be missing. Equal entries are not always repeated.
Tests used:
HerA = target: T1, HerA (Saccharolobus solfataricus, UniProt Q97WG8); assay: native mass spectrometry titration; assay type: binding; conditions: 2 mM MgCl2, room temperature 1 h, 30 μM monomer, then 200 mM ammonium acetate, no dsDNA
T1 construct: recombinant, heat-treated, heparin and Q columns; homo-hexamer and homo-heptamer (heptamer dominant when apo)
T1 sequence (Q97WG8 1-500): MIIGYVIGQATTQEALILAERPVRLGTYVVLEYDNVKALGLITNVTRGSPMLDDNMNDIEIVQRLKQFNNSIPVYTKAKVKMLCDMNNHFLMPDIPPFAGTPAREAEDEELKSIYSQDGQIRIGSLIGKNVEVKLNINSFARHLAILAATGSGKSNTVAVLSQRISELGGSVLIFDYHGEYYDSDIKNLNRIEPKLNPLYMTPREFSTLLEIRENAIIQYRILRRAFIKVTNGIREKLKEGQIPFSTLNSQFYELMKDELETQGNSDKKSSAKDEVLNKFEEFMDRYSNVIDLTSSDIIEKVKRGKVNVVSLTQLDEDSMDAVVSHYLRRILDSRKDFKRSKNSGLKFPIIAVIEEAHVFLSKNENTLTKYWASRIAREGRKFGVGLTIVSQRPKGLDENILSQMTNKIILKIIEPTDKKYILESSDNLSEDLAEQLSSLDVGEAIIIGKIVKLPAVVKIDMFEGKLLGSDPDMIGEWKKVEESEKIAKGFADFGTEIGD

HerA–NurA = target: T2, HerA–NurA (Saccharolobus solfataricus, UniProt Q97WG8); assay: native mass spectrometry; assay type: binding; conditions: nuclease-active complex with 25 bp dsDNA
T2 construct: purified recombinant HerA hexamer with NurA dimer; with DNA double-strand break repair nuclease NurA
T2 sequence (Q97WH1 whole entry, one chain of several, further chain): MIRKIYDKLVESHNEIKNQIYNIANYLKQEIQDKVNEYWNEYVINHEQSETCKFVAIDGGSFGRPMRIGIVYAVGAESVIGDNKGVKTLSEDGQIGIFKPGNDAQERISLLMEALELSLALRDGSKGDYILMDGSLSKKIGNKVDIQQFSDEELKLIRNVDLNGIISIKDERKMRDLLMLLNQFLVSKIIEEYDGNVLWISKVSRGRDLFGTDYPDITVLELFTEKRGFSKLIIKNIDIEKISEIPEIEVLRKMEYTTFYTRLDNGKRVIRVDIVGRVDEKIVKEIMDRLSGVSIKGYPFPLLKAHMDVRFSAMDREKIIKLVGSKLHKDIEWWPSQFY

[1] = target: the molecule itself; assay: native MS; HerA alone, nucleotide-free (apo), 200 mM ammonium acetate pH 7.0-7.5, nano electrospray; relative intensities by UniDec

Molecule: Nc1ncnc2c1ncn2[C@@H]1O[C@H](COP(=O)(O)OP(=O)(O)OP(O)(O)=S)[C@@H](O)[C@H]1O [ATP-γ-S]
- native mass spectrometry titration (HerA): the HerA hexamer binds all six ATP-γ-S simultaneously
- native mass spectrometry (HerA–NurA; mixed with ADP): nuclease-active HerA–NurA–dsDNA complex was incubated with ATP-γ-S

Molecule: Nc1ncnc2c1ncn2[C@@H]1O[C@H](COP(=O)(O)OP(=O)(O)O)[C@@H](O)[C@H]1O [ADP]
- native mass spectrometry titration (HerA; 1 mM ADP spectrum): increase in hexameric HerA population was found when titrating HerA with increasing concentrations of ADP
- native mass spectrometry (HerA–NurA; ATP-γ-S pre-bound): determined the number of ADP simultaneously bound to HerA–NurA–dsDNA

B1: HerA helicase, wild type (Sulfolobus solfataricus) (enzyme, S. solfataricus)
chain: MIIGYVIGQATTQEALILAERPVRLGTYVVLEYDNVKALGLITNVTRGSPMLDDNMNDIEIVQRLKQFNNSIPVYTKAKVKMLCDMNNHFLMPDIPPFAGTPAREAEDEELKSIYSQDGQIRIGSLIGKNVEVKLNINSFARHLAILAATGSGKSNTVAVLSQRISELGGSVLIFDYHGEYYDSDIKNLNRIEPKLNPLYMTPREFSTLLEIRENAIIQYRILRRAFIKVTNGIREKLKEGQIPFSTLNSQFYELMKDELETQGNSDKKSSAKDEVLNKFEEFMDRYSNVIDLTSSDIIEKVKRGKVNVVSLTQLDEDSMDAVVSHYLRRILDSRKDFKRSKNSGLKFPIIAVIEEAHVFLSKNENTLTKYWASRIAREGRKFGVGLTIVSQRPKGLDENILSQMTNKIILKIIEPTDKKYILESSDNLSEDLAEQLSSLDVGEAIIIGKIVKLPAVVKIDMFEGKLLGSDPDMIGEWKKVEESEKIAKGFADFGTEIGD
notes: HerA helicase of the thermophilic archaeon Sulfolobus solfataricus; In solution a mix of hexamer and heptamer; the hexamer is the form found with NurA; No tag is named in the purification; Expression and constructs may be described in the supplementary materials and methods; also called apo-HerA; wild-type HerA; source: cells lysed by sonication, lysate heated at 70°C, purified (Heparin HP, …)
- abundance of the heptamer over the hexamer [1]: ~10 fold
- stoichiometry N [1]: 6 and 7

— article PMC5715905, “Mechanistic insight into the assembly of the HerA–NurA helicase–nuclease DNA end resection complex” (Nucleic Acids Research, 2017)
